This note sets out measurements from ChEMBL document CHEMBL3886649, “Compounds and compositions for inhibiting the activity of ABL1, ABL2 and BCR-ABL1” (2016).

pIC50: −log10 of the molar value.

This experiment concerns the target Tyrosine-protein kinase ABL1 (Homo sapiens, UniProt P00519). Kind of experiment: Radiometric Filter-Binding Assay: For determination of ABL kinase activity, the radiometric filter-binding assay was used. The assay was performed by mixing 10 μL of the compound pre-diluted with 10 μL of ATP ([…] with 0.1 μCi [γ-33P]-ATP) with the phospho-acceptor peptide poly[Ala6Glu2LysHBr5Tyr1]=polyAEKY) in 20 mM Tris/HCl pH 7.5, 1 mM DTT, 10 mM MgCl2, 0.01 mM Na3VO4, 50 mM NaCl. 10 μL ….

Sequence of Tyrosine-protein kinase ABL1 (P00519 whole entry): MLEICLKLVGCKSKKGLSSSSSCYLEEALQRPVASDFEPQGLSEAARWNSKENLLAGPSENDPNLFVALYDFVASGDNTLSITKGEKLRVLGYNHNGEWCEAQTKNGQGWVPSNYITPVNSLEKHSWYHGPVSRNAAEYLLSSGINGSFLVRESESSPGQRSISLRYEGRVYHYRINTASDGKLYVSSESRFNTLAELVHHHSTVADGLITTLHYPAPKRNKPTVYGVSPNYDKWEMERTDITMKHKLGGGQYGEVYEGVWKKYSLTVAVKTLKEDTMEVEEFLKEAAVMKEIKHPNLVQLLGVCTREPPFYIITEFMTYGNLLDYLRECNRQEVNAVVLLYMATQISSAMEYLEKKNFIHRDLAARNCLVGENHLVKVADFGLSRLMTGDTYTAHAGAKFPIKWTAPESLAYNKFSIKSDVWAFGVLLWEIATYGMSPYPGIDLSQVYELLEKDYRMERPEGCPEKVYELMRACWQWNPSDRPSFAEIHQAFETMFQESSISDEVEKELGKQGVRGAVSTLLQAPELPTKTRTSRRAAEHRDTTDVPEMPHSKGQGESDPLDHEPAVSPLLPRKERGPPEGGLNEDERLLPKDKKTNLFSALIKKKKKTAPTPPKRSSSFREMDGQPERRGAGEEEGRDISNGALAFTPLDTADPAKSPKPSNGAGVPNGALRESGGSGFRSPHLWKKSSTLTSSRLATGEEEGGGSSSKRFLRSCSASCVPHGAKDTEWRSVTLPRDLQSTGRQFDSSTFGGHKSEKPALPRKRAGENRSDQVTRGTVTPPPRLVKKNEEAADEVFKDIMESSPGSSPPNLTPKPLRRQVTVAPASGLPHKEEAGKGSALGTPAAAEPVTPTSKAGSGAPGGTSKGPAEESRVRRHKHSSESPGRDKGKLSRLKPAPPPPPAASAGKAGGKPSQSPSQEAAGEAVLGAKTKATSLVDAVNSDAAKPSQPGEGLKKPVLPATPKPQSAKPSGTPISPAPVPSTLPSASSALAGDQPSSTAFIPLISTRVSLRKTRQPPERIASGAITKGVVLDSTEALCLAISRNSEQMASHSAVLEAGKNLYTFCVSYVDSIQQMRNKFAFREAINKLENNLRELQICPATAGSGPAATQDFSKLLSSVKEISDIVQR
Description: Radiometric Filter-Binding Assay: For determination of ABL kinase activity, the radiometric filter-binding assay was used. […] 10 μL of enzyme (ranging between 5 nM to 20 nM) was added to initiate the reaction. Pre-incubation of enzyme with compounds (when stated) was performed by exposing the enzyme to compounds prior to addition of the substrate mixture (ATP and/or peptide substrate). […] Filter-plates were washed 3× with 0.5% H3PO4, followed by addition of 30 μL scintillation cocktail (Microscint, Perkin Elmer) per well and then analysed in a TopCount NXT scintillation counter (Perkin Elmer).

As a reminder, the pIC50 is the IC50 on a negative log10 scale, so that one unit is a factor of ten. High values mean a small IC50, low ones a large IC50. Regarding `O=C(Nc1ccc(OC(F)(F)F)cc1)c1cnc(C2CCOCC2)c(-c2cncnc2)c1`, the negative logarithm of the IC50 (pIC50) is 8.52. With `O=C(Nc1ccc(CC(F)(F)F)cc1)c1cccc(-c2cncnc2)c1` the figure was 6.63.
